In patent US12037354B2, “Cyclic pantetheine derivatives and uses thereof” (VectivBio Comet AG, priority 2018, dated 2024):

Key:
Format in all cases: cell-based, human
[1] = system: Peripheral blood mononuclear cells co-cultured with B-cells (BT system); assay: BioMAP BT system, Example 829
Procedure: (§1) The BioMAP platform (BioMAP® Diversity PLUS Panel from Eurofins) is an in vitro phenotypic profiling technology that screened the compounds of the present disclosure (hereafter indicated as test agents) in human primary cell-based systems modelling complex tissue and disease states. The BioMAP assays were performed using the Eurofin's BioMAP Technology Platform as (see references 1 to 13 in the example 824 section) to model different diseases on primary cell-based model systems. These systems consisted of either single primary cell types or co-culture cells. Adherent cell types were cultured or co-cultured in 96 or 384-well plates until confluence followed by the addition of compounds prepared in DMSO at a final concentration of ≤0.1%. In each cell-based system, primary cells from heathy donors (2-6 donors) were pooled and treated with compounds at 1 and 10 μM dose 1 h prior to stimulation and remain in culture as indicated in
(§2) Example 825, Example 826, Example 827, Example 828, Example 829, Example 830, Example 831, Example 832, Example 833, Example 834, Example 835, Example 836 and Example 837. For on the BioMAP® Diversity PLUS® Panel, please see the following references, which are incorporate herein.
Following the general procedure as described in Example 824, Peripheral blood mononuclear cells were co-cultured with B-cells (BT system) were treated with either α-IgM and TCR ligands for 72 h in the presence or absence of the compounds to model asthma, allergy, oncology and autoimmunity. Biomarkers read out were; B-cell proliferation, PBMC cytotoxicity, secreted IgG, sIL-17A, sIL-17F, sIL-2, sIL-6 and s-TNFα.

[2] = system: Coronary artery smooth muscle cells (CASM3C system); assay: BioMAP CASM3C system, Example 832
Procedure: as §1, §2
Following the general procedure as described in Example 824, Coronary artery smooth muscle cells (CASM3C system) were treated with IL-1β, TNFα and IFNγ for 24 h in the presence or absence of the compounds to model cardiovascular inflammation and restenosis. Biomarker reads out were; MCP-1, VCAM-1, Throbomodulin, Tissue factor, uPAR, IL-8, MIG, HLA-DR, IL-6, LDLR, M-CSF, PAI-1, Proliferation, SAA and SRB

[3] = system: Bronchial epithelial cells co-cultured with dermal fibroblast (BF4T system); assay: BioMAP BF4T system, Example 830; settings: for % increase in Eotaxin-3 / % increase in VCAM-1: 10 uM
Procedure: as §1, §2
Following the general procedure as described in Example 824, Bronchial epithelial cells were co-cultured with dermal fibroblast (BF4T system) and were treated with TNFα and IL-4 for 24 h in the presence or absence of the compounds to model asthma, allergy, fibrosis, lung inflammation. Biomarkers read out were; MCP-1, Eotaxin-3, VCAM-1, ICAM-1, CD90, IL-8, IL-1α, keratin 8/18, MMP-1, MMP-3, MMP-9, PAI-1, SRB, tPA, uPA.

[4] = system: Bronchial epithelial cells (BE3C system); assay: BioMAP BE3C system, Example 831
Procedure: as §1, §2
Following the general procedure as described in Example 824, Bronchial epithelial cells (BE3C system) were treated with IL-1f3, TNFα and IFNγ for 24 h in the presence or absence of the compounds to model lung inflammation and chronic obstructive pulmonary disease (COPD). Biomarkers read out were; ICAM-1, uPAR, IP-10, I-TAC, IL-8, MIG, EGFR, HLA-DR, IL-1α, Keratin 8/18, MMP-1, MMP-9, PAI-1, SRB, tPA, uPA.

[5] = system: Peripheral blood mononuclear cells co-cultured with venular endothelial cells (Sag system); assay: BioMAP Sag system, Example 828
Procedure: as §1, §2
Following the general procedure as described in Example 824, Peripheral blood mononuclear cells were co-cultured with venular endothelial cells and treated with soluble antigen (T-cell ligands) (Sag system) in the presence or absence of compounds to model autoimmune and chronic inflammation. Biomarkers read out were; MCP-1, CD38, CD40, E-selectin, CD69, IL-8, MIG, PBMC cytotoxicity, Proliferation and SRB.

[6] = system: Keratinocytes co-cultured with dermal fibroblast (KF3CT system); assay: BioMAP KF3CT system, Example 834
Procedure: as §1, §2
Following the general procedure as described in Example 824, Keratinocytes were co-cultured with dermal fibroblast (KF3CT system) and treated with […], TNFα, IFNγ and TGFβ for 24 h in the presence or absence of the compounds to model psoriasis, dermatitis and skin biology. Biomarkers read out were; MCP-1, ICAM-1, IP-10, IL-8, MIG, IL-1α, MMP-9, PAI-1, SRB, TIMP-2, uPA.

[7] = system: Venular Endothelial cells (HUVEC) (3C system); assay: BioMAP 3C system, Example 825
Procedure: as §1, with “In each cell-based system, primary cells from heathy donors (2-6 donors) were pooled and treated with compounds at 1 and 10 μM dose 1 h prior to stimulation and remain in culture as indicated in” left out
Following the general procedure as described in Example 824, Venular Endothelial cells (HUVEC) (3C system) were treated with IL-1β, TNFα, IFNγ for 24 h to model Th1 driven cardiovascular and chronic inflammation diseases in the presence or absence of the compounds. Biomarker read out were; Tissue Factor, ICAM-1, E-selectin, uPAR (CD87), IL-8, […], HLA-DR, proliferation and SRB (Sulfo-rhodamine i.e. staining for protein content).

[8] = procedure of Example 825, concentration tested 1 uM
[9] = procedure of Example 825, concentration tested 10 uM

SMILES	% decrease in sTNFα ([1]; BT system, 10 uM)	% decrease in IL-8 ([2]; 10 uM)	% decrease in LDLR ([2]; 10 uM)	% decrease in Thrombomodulin ([2]; 10 uM)	% increase in Eotaxin-3 [3]	% increase in VCAM-1 [3]	% decrease in MMP-9 ([4]; 1 uM)	% decrease in MCP-1 ([6]; 1 uM (Example 927))	% decrease in MCP-1 ([6]; 1 uM (Example 928))	% decrease in IL-8 ([7]; 3C system, 1 uM)	% increase in Proliferation (HUVEC) ([7]; 3C system, 10 uM)	% increase in Proliferation (HUVEC) ([7]; concentration tested 10 uM)	% decrease in IL-8 [7, 8]	% decrease in sTNFα ([1]; BT system, 1 uM)	% decrease in Thrombomodulin ([2]; 1 uM)	% decrease in VCAM-1 ([2]; 1 uM)	% decrease in HLA-DR ([2]; 10 uM)	% increase in B-cell Proliferation ([1]; BT system, 10 uM)	% increase in sIL-6 ([1]; BT system, 10 uM)	% increase in B-cell Proliferation ([1]; concentration tested 10 uM)	other results
CC(=O)CC(=O)SCCNC(=O)CCNC(=O)[C@@H]1OP(=O)(O)OCC1(C)C [Compound 42]	≥20%	≥10%	≥10%	≥10%	≥10%	≥10%	≥10%	≥10%	≥10%												% decrease in B-cell proliferation ([1]; BT system, 10 uM): ≥10%; % decrease in sIL-17 ([1]; BT system, 10 uM): ≥20%; % decrease in B-cell proliferation ([1]; concentration tested 10 uM): ≥10%; % decrease in sIL-17 ([1]; concentration tested 10 uM): ≥20%; % increase in CD69 ([5]; Sag system, 10 uM): ≥10%; % increase in MCP-1 ([5]; Sag system, 10 uM): ≥10%; % increase in CD69 ([5]; concentration tested 10 uM): ≥10%
COC(=O)CCC(=O)SCCNC(=O)CCNC(=O)[C@@H]1OC(=O)OCC1(C)C [Compound 451]					≥10%	≥10%	≥10%	≥10%	≥10%	≥10%	≥20%	≥20%	≥10%	≥20%	≥10%	≥10%	≥10%				% increase in B-cell Proliferation ([1]; BT system, 1 uM): ≥10%; % increase in B-cell Proliferation ([1]; concentration tested 1 uM): ≥10%; % increase in IL-6 ([2]; 10 uM): ≥10%; % decrease in tPA ([4]; 10 uM): ≥10%; % decrease in CXCL8/IL-8 ([5]; Sag system, 10 uM): ≥10%; % decrease in CXCL8/IL-8 ([5]; concentration tested 10 uM): ≥10%
C/C=C/C(=O)SCCNC(=O)CCNC(=O)[C@@H]1OP(=O)(O)OCC1(C)C [Compound 36]				≥20%							≥20%	≥20%		≥10%		≥10%	≥10%	≥20%	≥10%	≥20%	% decrease in IL-8 ([7]; 3C system, 10 uM): ≥10%; % decrease in IL-8 [7, 9]: ≥10%; % decrease in LDLR ([2]; 1 uM): ≥10%; % decrease in uPAR ([2]; 1 uM): ≥10%; % decrease in M-CSF ([2]; 10 uM): ≥10%; % decrease in Tissue Factor ([2]; 10 uM): ≥10%; % decrease in CXCL8/IL-8 ([5]; Sag system, 10 uM): ≥10%; % decrease in CXCL8/IL-8 ([5]; concentration tested 10 uM): ≥10%
CCOP1(=O)OCC(C)(C)[C@H](C(=O)NCCC(=O)NCCSC(=O)CCC(=O)O)O1 (stereo partly drawn) [Compound 61]			≥10%	≥20%	≥10%		≥10%	≥20%	≥20%	≥10%			≥10%			≥10%		≥10%	≥10%	≥10%	% decrease in Tissue Factor ([2]; 1 uM): ≥10%; % increase in PBMC Cytotoxicity ([5]; Sag system, 10 uM): ≥10%; % increase in PBMC Cytotoxicity ([5]; concentration tested 10 uM): ≥10%
COC(=O)CCC(=O)SCCNC(=O)CCNC(=O)[C@@H]1OC(C)(CC(=O)OC)OCC1(C)C (stereo partly drawn) [Compound 633]	≥10%	≥10%			≥10%			≥10%	≥10%						≥10%	≥10%		≥20%	≥20%	≥20%	% increase in Proliferation (HUVEC) ([7]; 3C system, 1 uM): ≥20%; % decrease in IL-8 ([7]; 3C system, 10 uM): ≥20%; % increase in Proliferation (HUVEC) ([7]; concentration tested 1 uM): ≥20%; % decrease in IL-8 [7, 9]: ≥20%; % increase in sIL-2 ([1]; BT system, 10 uM): ≥20%; % decrease in HLA-DR ([2]; 1 uM): ≥10%; % decrease in LDLR ([2]; 1 uM): ≥10%; % decrease in M-CSF ([2]; 1 uM): ≥10%; % decrease in Tissue Factor ([2]; 1 uM): ≥10%; % decrease in uPAR ([2]; 1 uM): ≥10%; % decrease in MMP-9 ([3]; 1 uM): ≥10%; % increase in IL-8 ([4]; 1 uM): ≥10%; % decrease in MMP-9 ([4]; 10 uM): ≥10%
